Results: US20230414775A1, “TUBULYSINS AND PROTEIN-TUBULYSIN CONJUGATES” (priority 2021, published 2023)
Where two headings read alike, the source gives them in different places.

Experiments:
[1] = system: HCT15 cells; experiment: HCT15 anti-proliferation / cell killing assay (CellTiter-Glo), with or without verapamil; format: cell-based, human; conditions: Homo sapiens
Experimental: The cell line used in the anti-proliferation assays was HCT15, a human colon, colorectal carcinoma cell line. The HCT15 cells were grown in RPMI medium 1640+10% FBS. To run the assay, the cells (40 μL, 400 cells) were added to each well in a 384-well plate and incubated for twenty-four hours at 37° C. with 5% CO2. One hour before adding compounds, freshly dilute Verapamil to 0.2 mg/ml in ddH2O. Add 1 μL/well diluted Verapamil to Verapamil treatment wells and 1 μL/well ddH2O to the non-Verapamil treatment wells. Return plates to the incubator at 37° C. with 5% CO2. Then the cells were treated with test compounds at various concentrations using HPD300, and then normalize the DMSO to 0.5%. The control wells contained cells and the medium but lack the test compounds. The plates were incubated for 120 hours at 37° C. with 5% CO2. CTG reagent was then added to the wells (25 μL). After the plates were shaken for 10 min and then incubated for 10 min at room temperature, paste the clear bottom with white back seal and record luminescence with Envision. The inhibition % was calculated according to the following equation: inhibition %=[1−(assay-blank)/(control-blank)]×100.

[2] = system: SK-BR-3 cells; experiment: SK-BR-3 anti-proliferation assay for payloads (CellTiter-Glo); format: cell-based; conditions: Homo sapiens, free payload, 120-144 h, read-out: SKBR3
Experimental: The cell line used in the anti-proliferation assays was SK-BR-3, a human breast, adenocarcinoma (pleural effusion) cell line. The cells were grown in McCoy's 5a Medium+10% FBS. To run the assay for payloads, the cells (40 μL, 700 cells) were added to each well in a 384-well plate and incubated for 24 hours at 37° C. with 5% CO2. Then the cells were treated with test compounds at various concentrations using HPD300, and then normalize the DMSO to 0.5%. The control wells contain cells and the medium but lack the test compounds. The plates were incubated for 120 h at 37° C. with 5% CO2. To run the assay for ADCs and some key payloads, the cells (80 μL, 1000 cells) were added to each well in a 96-well plate and incubated for twenty-four hours at 37° C. with 5% CO2. Next, the ADCs or payloads were diluted with Opti-Mem with 0.1% BSA. The cells were treated with test compounds or ADCs (20 μL) at various concentrations in appropriate cell culture medium (total volume, 0.1 mL). The final concentration of DMSO was adjusted to 0.2% and the Opti-Mem with 0.1% BSA was adjusted to 5%. The control wells contained cells and the medium but lacked the test compounds. The plates were incubated for 144 h at 37° C. with 5% CO2. CTG reagent was then added to the wells (25 μL/384-well or 100 μL/96-well). After the plates were shaken for 10 min and then incubated for 10 min at room temperature, paste the clear bottom with white back seal and record luminescence with Envision. The inhibition % was calculated according to the following equation: inhibition %=[1-(assay-blank)/(control-blank)]×100.

[3] = HCT15 cells, no verapamil, 120 h (5 days), read-out: HCT-15
[4] = HCT-15, HCT15 cells pre-treated with verapamil, 120 h, read-out: HCT-15 with verapamil

For `CCCCCCN(C(=O)[C@@H](NC(=O)[C@@]1(C)CCCN1CCN)[C@@H](C)CC)[C@H](C[C@@H](OC(C)=O)c1nc(C(=O)N[C@@H](Cc2ccc(O)cc2)CC(C)(C)C(=O)O)cs1)C(C)C` (mixture of isomers) [PA5, (S)-4-(2-((1RS,3RS)-1-acetoxy-3-((2SR,3SR)-2-((R)-1-(2-aminoethyl)-2-methylpyrrolidine-2-carboxamido)-N-hexyl-3-methylpentanamido)-4-methylpentyl)thiazole-4-carboxamido)-5-(4-hydroxyphenyl)-2,2-dimethylpentanoic acid], the IC50 [1, 3] was > 100 nM, the IC50 [1, 4] was 15.9 nM and the IC50 [2] was 18.3 nM.

`CCCCCCN(C(=O)[C@@H](NC(=O)[C@H]1CCCCN1)[C@@H](C)CC)[C@H](C[C@@H](OC(C)=O)c1nc(C(=O)N[C@@H](Cc2ccc(NCC(=O)O)cc2)CC(C)(C)C(=O)O)cs1)C(C)C` (mixture of isomers) [PA17, Rac-(R)-4-(2-((1S,3S)-1-acetoxy-3-((2R,3R)—N-hexyl-3-methyl-2-((S)-piperidine-2-carboxamido)pentanamido)-4-methylpentyl)thiazole-4-carboxamido)-5-(4-((carboxymethyl)amino)phenyl)-2,2-dimethylpentanoic acid] showed an IC50 [1, 3] of 1.39 nM, an IC50 [1, 4] of 0.09 nM and an IC50 [2] of 0.131 nM.

In the case of `CCCCCCN(C(=O)[C@@H](NC(=O)[C@H]1CCCCN1)[C@@H](C)CC)[C@H](C[C@@H](OCCCO)c1nc(C(=O)N[C@@H](Cc2ccc(NCC(=O)O)cc2)CC(C)(C)C(=O)O)cs1)C(C)C` (mixture of isomers) [PA23, Rac-(R)-5-(4-((carboxymethyl)amino)phenyl)-4-(2-((1S,3S)-3-((2R,3R)—N-hexyl-3-methyl-2-((S)-piperidine-2-carboxamido)pentanamido)-1-(3-hydroxypropoxy)-4-methylpentyl)thiazole-4-carboxamido)-2,2-dimethylpentanoic acid], the IC50 [1, 3] is reported as > 1000 nM, the IC50 [1, 4] is reported as > 1000 nM and the IC50 [2] is reported as 9.35 nM.

Compound `CCCCCCN(C(=O)[C@@H](NC(=O)[C@H]1CCCCN1C)[C@@H](C)CC)[C@H](C[C@@H](OC(=O)NCCOCCOCCO)c1nc(C(=O)N[C@@H](Cc2ccc(N)c(F)c2)CC(C)(C)C(=O)O)cs1)C(C)C` (mixture of isomers) [PA25, (S)-5-(4-amino-3-fluorophenyl)-4-(2-((3RS,6SR,8SR)-3-((RS)-sec-butyl)-5-hexyl-19-hydroxy-6-isopropyl-1-((R)-1-methylpiperidin-2-yl)-1,4,10-trioxo-9,14,17-trioxa-2,5,11-triazanonadecan-8-yl)thiazole-4-carboxamido)-2,2-dimethylpentanoic acid] has an IC50 [1, 3] of 0.477 nM, an IC50 [1, 4] of 0.158 nM and an IC50 [2] of 1.6 nM.

In the case of `CCCCCCN(C(=O)[C@@H](NC(=O)[C@@]1(C)CCCN1C(=O)CN)[C@@H](C)CC)[C@H](C[C@@H](OC(C)=O)c1nc(C(=O)N[C@@H](Cc2ccc(N)c(F)c2)CC(C)(C)C(=O)O)cs1)C(C)C` [PA1, (4S)-4-({2-[(1R,3R)-1-(acetyloxy)-3-[(2S,3S)-2-{[(2R)-1-(2-aminoacetyl)-2-methylpyrrolidin-2-yl]formamido}-N-hexyl-3-methylpentanamido]-4-methylpentyl]-1,3-thiazol-4-yl}formamido)-5-(4-amino-3-fluorophenyl)-2,2-dimethylpentanoic acid], the IC50 [1, 3] is reported as > 100 nM and the IC50 [1, 4] is reported as > 100 nM.

In the case of `CCCCCCN(C(=O)[C@@H](NC(=O)[C@@]1(C)CCCN1C(=O)CN)[C@@H](C)CC)[C@H](C[C@@H](OC(C)=O)c1nc(C(=O)N[C@@H](Cc2ccc(O)cc2)CC(C)(C)C(=O)O)cs1)C(C)C` [PA2, (4S)-4-({2-[(1R,3R)-1-(acetyloxy)-3-[(2S,3S)-2-{[(2R)-1-(2-aminoacetyl)-2-methylpyrrolidin-2-yl]formamido}-N-hexyl-3-methylpentanamido]-4-methylpentyl]-1,3-thiazol-4-yl}formamido)-5-(4-hydroxyphenyl)-2,2-dimethylpentanoic acid], the IC50 [1, 3] is reported as > 100 nM.
